Test results published in US9187529B2 (priority 2011, dated 2015).
Values joined by “and” are separate entries in the source; they are usually repeats but may differ in a detail not shown here. Equal entries are not always repeated. Ends that are not written are not given here. Peptide text beside a SMILES is read from it.

How the values were obtained:
[1] = rabbit, in vivo
S. aureus MN8 = type: cell-based, Staphylococcus aureus
[2] = tested on: TSST-1 production of S. aureus MN8; type: cell-based, Staphylococcus aureus

| Compound | signs of inflammation and vaginal irritation [1] | antimicrobial activity (S. aureus MN8) | TSST-1 % of No Peptide Control [2] | TSST-1 inhibition activity [2] | viable count (10^8 CFU/mL) (S. aureus MN8) | inhibition of MN8 growth (S. aureus MN8) | dose (as low as) giving complete inhibition of TSST-1 production [2] |
| --- | --- | --- | --- | --- | --- | --- | --- |
| C[C@H](NC(=O)[C@H](CO)NC(=O)[C@H](CCCCN)NC(=O)[C@H](Cc1c[nH]cn1)NC(=O)[C@H](CO)NC(=O)[C@H](CCCCN)NC(=O)[C@H](CCCCN)NC(=O)[C@H](CCCCN)NC(=O)[C@H](Cc1c[nH]cn1)NC(=O)[C@@H]1CCCN1C(=O)[C@H](CCCCN)NC(=O)[C@H](Cc1ccc(O)cc1)NC(=O)[C@H](CCCCN)NC(=O)[C@H](CCCCN)NC(=O)[C@H](CCCCN)NC(=O)[C@H](CCCCN)NC(=O)[C@@H]1CCCN1C(=O)[C@H](CCCCN)NC(=O)[C@@H](N)CO)C(=O)N[C@@H](CCCCN)C(=O)N[C@@H](CCCCN)C(=O)N[C@@H](CCCCN)C(=O)O [SP-1] (H-SKPKKKKYKPHKKKSHKSAKKK-OH) | No irritation or inflammation was observed | – | – | – | – | – | – |
| SFPTTATYFPAFDLSAGSAQVA [SP-3] | – | lacked antimicrobial | 100 % of No Peptide Control | lacked antimicrobial and TSST-1 inhibition activity | – | – | – |
| SFPTTKTYFPHFDLSHGSAQVK [Hbg-1] | – | No antimicrobial activity was observed | – | – | 20 and 22 and 17 and 21 and 19 and 25 | – | – |
| SFPTTKTYFPHFDLSHGSAQVK-agarose beads (not fully specified (C-terminus)) [Hbg-3] | – | not antimicrobial | – | retained TSST-1 inhibition activity | 21 and 22 and 16 and 20 and 23 | – | – |
| STKPFFYFLHTQVKASPTSHDG [Hbg-2] | – | not antimicrobial | – | comparably active as Hbg-1 | 24 and 22 and 30 and 25 and 23 | – | – |
| human neutrophil peptide-1 [HNP-1, reference compound] | – | no antimicrobial activity was observed | – | highly inhibitory of production of TSST-1 | – | approximately 1 log | 10^−3 μg/mL |
| human neutrophil peptide-2 (CYCRIPACIAGERRYGTCIYQGRLWAFCC; listed as Homo sapiens) [HNP-2, reference compound] | – | no antimicrobial activity was observed | – | highly inhibitory of production of TSST-1 | – | approximately 1 log | 10^−3 μg/mL |
